Read-outs that look alike come from different tables or passages of the source. Some results are limits rather than exact numbers.

The target in test [1] is T1, human orexin-2 receptor (Homo sapiens, UniProt O43614).
T1 construct: expressed in transfected cells; host or cells: Chinese hamster ovary (CHO) cells, G418 selection
T1 sequence (O43614 1-444): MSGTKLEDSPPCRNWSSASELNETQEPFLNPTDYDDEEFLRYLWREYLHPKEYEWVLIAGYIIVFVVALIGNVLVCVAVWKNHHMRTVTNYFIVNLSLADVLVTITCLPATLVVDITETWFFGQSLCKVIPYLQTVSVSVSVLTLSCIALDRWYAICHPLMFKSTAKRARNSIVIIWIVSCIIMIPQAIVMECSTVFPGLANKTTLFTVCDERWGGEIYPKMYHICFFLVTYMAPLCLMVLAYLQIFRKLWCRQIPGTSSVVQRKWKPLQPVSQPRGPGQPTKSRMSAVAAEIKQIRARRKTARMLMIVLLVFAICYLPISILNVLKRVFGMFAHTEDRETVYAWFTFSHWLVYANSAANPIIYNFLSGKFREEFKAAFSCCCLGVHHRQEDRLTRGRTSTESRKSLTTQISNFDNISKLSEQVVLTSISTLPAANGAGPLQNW
As to the kind of experiment: Intracellular calcium measurements (FLIPR), orexin receptor antagonistic activity. Format: cell-based. Conditions: CHO cells expressing human orexin-2 receptor, 3 nM orexin-A, read-out: OX2 IC50. The method, then:
(§1) The orexin receptor antagonistic activity of the compounds of formula (I) is determined in accordance with one of the following experimental methods.
(§2) Intracellular Calcium Measurements:
(§3) Chinese hamster ovary (CHO) cells expressing the human orexin-1 receptor and the human orexin-2 receptor, respectively, are grown in culture medium (Ham F-12 with L-Glutamine) containing 300 μg/ml G418, 100 U/ml penicillin, 100 μg/ml streptomycin and 10% heat inactivated fetal calf serum (FCS). The cells are seeded at 20'000 cells/well into 384-well black clear bottom sterile plates (Greiner). The seeded plates are incubated overnight at 37° C. in 5% CO2.
(§4) Human orexin-A as an agonist is prepared as 1 mM stock solution in MeOH:water (1:1), diluted in HBSS containing 0.1% bovine serum albumin (BSA), NaHCO3:0.375 g/l and 20 mM HEPES for use in the assay at a final concentration of 3 nM.
(§5) Antagonists are prepared as 10 mM stock solution in DMSO, then diluted in 384-well plates, first in DMSO, then in HBSS containing 0.1% bovine serum albumin (BSA), NaHCO3: 0.375 g/l and 20 mM HEPES.
(§6) On the day of the assay, 50 μl of staining buffer (HBSS containing 1% FCS, 20 mM HEPES, NaHCO3: 0.375 g/l, 5 mM probenecid (Sigma) and 3 μM of the fluorescent calcium indicator fluo-4 AM (1 mM stock solution in DMSO, containing 10% pluronic) is added to each well.
(§7) The 384-well cell-plates are incubated for 50 min at 37° C. in 5% CO2 followed by equilibration at RT for 30-120 min before measurement.
(§8) Within the Fluorescent Imaging Plate Reader (FLIPR2 or FLIPR Tetra, Molecular Devices), antagonists are added to the plate in a volume of 10 μl/well, incubated for 10 min and finally 10 μl/well of agonist is added. Fluorescence is measured for each well at 1 second intervals, and the height of each fluorescence peak is compared to the height of the fluorescence peak induced by 3 nM orexin-A with vehicle in place of antagonist. For each antagonist, the IC50 value (the concentration of compound needed to inhibit 50% of the agonistic response) is determined. With the FLIPR Tetra, non-optimized and optimized conditions were used. Optimized conditions were achieved by adjustment of pipetting speed and cell splitting regime. The calculated IC50 values of the compounds may fluctuate depending on the daily cellular assay performance. Fluctuations of this kind are known to those skilled in the art.
(In general: Calcium assays in cells follow changes in intracellular calcium, usually with a dye or a luminescent sensor.)

The target of test [2] is T2, human orexin-1 receptor (Homo sapiens, UniProt O43613).
T2 construct: expressed in transfected cells; host or cells: Chinese hamster ovary (CHO) cells, G418 selection
T2 sequence (O43613 1-425): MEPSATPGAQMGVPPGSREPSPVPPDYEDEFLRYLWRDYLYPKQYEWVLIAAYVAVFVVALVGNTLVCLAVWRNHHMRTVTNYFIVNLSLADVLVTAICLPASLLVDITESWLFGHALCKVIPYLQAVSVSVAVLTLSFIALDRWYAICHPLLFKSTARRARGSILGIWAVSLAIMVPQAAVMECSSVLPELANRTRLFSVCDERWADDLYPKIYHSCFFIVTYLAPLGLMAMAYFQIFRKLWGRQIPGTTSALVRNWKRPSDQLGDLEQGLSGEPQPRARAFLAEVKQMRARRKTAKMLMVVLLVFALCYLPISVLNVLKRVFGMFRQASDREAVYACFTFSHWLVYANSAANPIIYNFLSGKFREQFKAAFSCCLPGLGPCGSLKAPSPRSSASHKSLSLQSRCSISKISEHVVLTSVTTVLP
The test is described as above. Conditions: CHO cells expressing human orexin-1 receptor, 3 nM orexin-A, read-out: OX1 IC50. It counts as cell-based. The method, then:
as §1, §2, §3, §4, §5, §6, §7, §8

The mark [3] stands for this setting: FLIPR Tetra, non-optimized conditions.
Setting [4] is: FLIPR Tetra, optimized conditions.

Turning to `Cc1nc(C(=O)N2C[C@@H]3C[C@@H]3[C@H]2CNC(=O)c2cccc(Br)c2)c(-c2cccc(Cl)c2)s1` [Example 74, 3-Bromo-N-{(1S,2S,5R)-3-[5-(3-chloro-phenyl)-2-methyl-thiazole-4-carbonyl]-3-aza-bicyclo[3.1.0]hex-2-ylmethyl}-benzamide], the IC50 (in general, the concentration that inhibits the measured activity by half) in test [1] (FLIPR2) stood at 48 nM; in test [2] (FLIPR2) it was 84 nM.
On the same counts, the results for `CCn1nc(C)cc1C(=O)NC[C@@H]1[C@H]2C[C@H]2CN1C(=O)c1nc(C)sc1-c1cccc(Cl)c1` [Example 80, 2-Ethyl-5-methyl-2H-pyrazole-3-carboxylic Acid{(1S,2S,5R)-3-[5-(3-chloro-phenyl)-2-methyl-thiazole-4-carbonyl]-3-aza-bicyclo[3.1.0]hex-2-ylmethyl}-amide] are 10 nM and 29 nM.
Regarding `Nc1nc(C(=O)N2C[C@@H]3C[C@@H]3[C@H]2CNC(=O)c2nccc3ccccc23)c(-c2cccc(F)c2)s1` [Example 112, Isoquinoline-1-carboxylic Acid{(1S,2S,5R)-3-[2-amino-5-(3-fluoro-phenyl)-thiazole-4-carbonyl]-3-aza-bicyclo[3.1.0]hex-2-ylmethyl}-amide], the IC50 in test [1] (FLIPR2) stood at 12 nM; in test [2] (FLIPR2), 115 nM.
`Cn1cc(C(=O)NC[C@@H]2[C@H]3C[C@H]3CN2C(=O)c2nc(N)sc2-c2cccc(F)c2)c2ccccc21` [Example 115, 1-Methyl-1H-indole-3-carboxylic Acid{(1S,2S,5R)-3-[2-amino-5-(3-fluoro-phenyl)-thiazole-4-carbonyl]-3-aza-bicyclo[3.1.0]hex-2-ylmethyl}-amide]: the IC50 turned out to be 48 nM in test [1] (FLIPR2) and 178 nM in test [2] (FLIPR2).
Turning to `Cn1nc(C(=O)NC[C@@H]2[C@H]3C[C@H]3CN2C(=O)c2nc(N)sc2-c2cccc(F)c2)c2ccccc21` [Example 117, 1-Methyl-1H-indazole-3-carboxylic Acid{(1S,2S,5R)-3-[2-amino-5-(3-fluoro-phenyl)-thiazole-4-carbonyl]-3-aza-bicyclo[3.1.0]hex-2-ylmethyl}-amide], the IC50 in test [1] (FLIPR2) worked out at 8 nM; in test [2] (FLIPR2), 80 nM.
`Nc1nc(C(=O)N2C[C@@H]3C[C@@H]3[C@H]2CNC(=O)c2cnc3ccccn23)c(-c2cccc(F)c2)s1` [Example 118, Imidazo[1,2-a]pyridine-3-carboxylic Acid{(1S,2S,5R)-3-[2-amino-5-(3-fluoro-phenyl)-thiazole-4-carbonyl]-3-aza-bicyclo[3.1.0]hex-2-ylmethyl}-amide]: the results for the IC50 in test [1] (FLIPR2) and in test [2] (FLIPR2) were 41 nM and 225 nM, respectively.
On the same counts, the results for `Cc1c(C(=O)NC[C@@H]2[C@H]3C[C@H]3CN2C(=O)c2nc(N)sc2-c2cccc(F)c2)sc2nccn12` [Example 124, 3-Methyl-imidazo[2,1-b]thiazole-2-carboxylic Acid{(1S,2S,5R)-3-[2-amino-5-(3-fluoro-phenyl)-thiazole-4-carbonyl]-3-aza-bicyclo[3.1.0]hex-2-ylmethyl}-amide] are 12 nM and 7030 nM.
For `Cc1cc(C)cc(C(=O)NC[C@@H]2[C@H]3C[C@H]3CN2C(=O)c2nc(C)sc2-c2cccc(C)c2)c1` [Example 147, 3,5-Dimethyl-N-[(1S,2S,5R)-3-(2-methyl-5-m-tolyl-thiazole-4-carbonyl)-3-aza-bicyclo[3.1.0]hex-2-ylmethyl]-benzamide], in that order: 26 nM and 324 nM.
`Cc1cccc(-c2sc(C)nc2C(=O)N2C[C@@H]3C[C@@H]3[C@H]2CNC(=O)c2cc(Br)ccc2Cl)c1` [Example 148, 5-Bromo-2-chloro-N-[(1S,2S,5R)-3-(2-methyl-5-m-tolyl-thiazole-4-carbonyl)-3-aza-bicyclo[3.1.0]hex-2-ylmethyl]-benzamide]: the IC50 in test [1] (FLIPR2) was 102 nM; in test [2] (FLIPR2) it was 1080 nM.
Take `Cc1cccc(-c2sc(C)nc2C(=O)N2C[C@@H]3C[C@@H]3[C@H]2CNC(=O)c2cccc3c2OCC(=O)N3)c1` [Example 169, 3-Oxo-3,4-dihydro-2H-benzo[1,4]oxazine-8-carboxylic Acid[(1S,2S,5R)-3-(2-methyl-5-m-tolyl-thiazole-4-carbonyl)-3-aza-bicyclo[3.1.0]hex-2-ylmethyl]-amide]: the half-inhibitory concentration (IC50) in test [1] (FLIPR2) was 61 nM; in test [2] (FLIPR2), > 10000 nM.
`Cc1cccc(-c2sc(C)nc2C(=O)N2C[C@@H]3C[C@@H]3[C@H]2CNC(=O)c2cccc3c2N(C)CCO3)c1` [Example 177, 4-Methyl-3,4-dihydro-2H-benzo[1,4]oxazine-5-carboxylic Acid[(1S,2S,5R)-3-(2-methyl-5-m-tolyl-thiazole-4-carbonyl)-3-aza-bicyclo[3.1.0]hex-2-ylmethyl]-amide]: the IC50 in test [1] (FLIPR2) is 88 nM; in test [2] (FLIPR2), 691 nM.
Take `N#Cc1ccc(-c2sc(C3CC3)nc2C(=O)N2C[C@@H]3C[C@@H]3[C@H]2CNC(=O)c2cccc(Cl)c2)cc1` [Example 186, 3-Chloro-N-{(1S,2S,5R)-3-[5-(4-cyano-phenyl)-2-cyclopropyl-thiazole-4-carbonyl]-3-aza-bicyclo[3.1.0]hex-2-ylmethyl}-benzamide]: the half-inhibitory concentration (IC50) in test [1] (setting [3]) worked out at 296 nM; in test [2] (setting [3]), 3260 nM.
As to `Cc1nc(C(=O)N2C[C@@H]3C[C@@H]3[C@H]2CNC(=O)c2cccc3c2CCO3)c(-c2cccc(C(F)(F)F)c2)s1` [Example 201, 2,3-Dihydro-benzofuran-4-carboxylic acid {(1S,2S,5R)-3-[2-methyl-5-(3-trifluoromethyl-phenyl)-thiazole-4-carbonyl]-3-aza-bicyclo[3.1.0]hex-2-ylmethyl}-amide], the figures for the IC50 in test [1] (setting [3]) and in test [2] (setting [3]) were 349 nM and 673 nM, respectively.
`CN(C)c1nc(C(=O)N2C[C@@H]3C[C@@H]3[C@H]2CNC(=O)c2scc3c2OCCO3)c(-c2cccc(F)c2)s1` [Example 220, 2,3-Dihydro-thieno[3,4-b][1,4]dioxine-5-carboxylic acid {(1S,2S,5R)-3-[2-dimethylamino-5-(3-fluoro-phenyl)-thiazole-4-carbonyl]-3-aza-bicyclo[3.1.0]hex-2-ylmethyl}-amide]: the IC50 in test [1] (setting [3]) was determined as 48 nM; in test [2] (setting [3]), 115 nM.
In the case of `Cc1ccc(-c2ccsc2C(=O)N2C[C@@H]3C[C@@H]3[C@H]2CNC(=O)c2c(C)nc3sccn23)cc1` [Example 222, 6-Methyl-imidazo[2,1-b]thiazole-5-carboxylic acid [(1S,2S,5R)-3-(3-p-tolyl-thiophene-2-carbonyl)-3-aza-bicyclo[3.1.0]hex-2-ylmethyl]-amide], the IC50 was 79 nM in test [1] (setting [4]) and 96 nM in test [2] (setting [4]).

Source of the values: patent US8063099B2, “Trans-3-aza-bicyclo[3.1.0]hexane derivatives” (Actelion Pharmaceuticals Ltd., priority 2007, dated 2011).
